Assay results as given in patent publication US11160808B2, “Compounds that enhance Atoh1 expression” (Massachusetts Eye & Ear Infirmary, priority 2008, dated 2021).
Read-outs that look alike come from different tables or passages of the source.

Tests used:
[1] = LD50 (median lethal dose) determination; type: cell-based
Excerpt: IC50 is a measure of the effectiveness of a compound in inhibiting biological or biochemical function. LD50 is the amount of a compound required to kill half the members of a tested population.

[2] = tested on: Math1 enhancer and minimal promoter Luciferase reporter in HEK cells; test: Math1 Luciferase reporter assay in HEK cells; type: cell-based, human
Excerpt: A human embryonic kidney (HEK) cell line stably expressing a Luciferase gene controlled by an Math1 enhancer and minimal promoter was used in a high-throughput screen (HTS) of 144,000 small molecules to identify compounds that increase Math1 expression (i.e., transcription and/or translation). Such compounds can be used to increase the conversion of stem cells, progenitor cells, and support cells to or towards a hair cell. Screens to identify such compounds are described by Li et al., (U.S. Publication No. 2005/0287127) and Li et al., (U.S. application Ser. No. 11/953,797).
HEK cells stably expressing the Math1 Luciferase reporter were plated onto 384 well plates and cultured overnight in medium containing 10% fetal calf serum (FCS). Activation of the Math1 enhancer was measured by the increase in luminescence on a plate reader following addition of a luciferase detection agent. The assay was optimized for cell number, time of incubation, volume of medium, cell lysis reagent and luciferase reagent. Luminescence levels were compared in cells with the Math1-luciferase construct with and without retinoic acid (1 μM), and/or a luciferase construct with and without the Math1 enhancer and minimal promoter region.
To improve assay sensitivity, and reduce the coefficient of variation (CV), a more sensitive luciferase reagent (BriteLite luciferase reporter assay reagent, Perkin Elmer) was used, and Triton-X-100 was added to the lysis reagent to ensure complete lysis of the cells. Following these changes a CV of 4.2% was recorded. These conditions were used for all high-throughput screens. The luminescence threshold for a compound to be positive was defined as a 2-fold increase above the control (e.g., cells exposed to DMSO).
Cells were seeded on 384 well plates and allowed to attach overnight at 37° C. with 5% CO2 in the absence of growth factors. Math1 activation was measured by the increase in luminescence on a plate reader following addition of a luciferase detection reagent. Luminescence was assessed at 24, 48, and 72 hours. These conditions were used to screen 144,000 compounds contained in the small molecule libraries at Harvard University's Laboratory for Drug Discovery in Neurodegeneration (LDDN).
HTS were performed using HEK-Math1 cells seeded in 384 well plates. One compound was added per well using pin transfer. The final concentration of each compound was […]. Cell were incubated in the presence of a compound for 48 hours at 37° C. with 5% CO2. Cell lysates then were collected and bioluminescence determined. Luminescence values were compared normalized against DMSO.
About 20000 compounds were screened per week in 50 plates of 384 well with the aid of robotic systems (Beckman Biomek FX). Compounds were screened at an average final concentration of 0.7 μM (in 0.04% DMSO) with each plate containing 16 wells of 1 μM retinoic acid, as a positive control, and 16 wells of 0.04% DMSO, as a vehicle control. Percent activation of luminescence in the test compounds was determined for cells treated with the compounds against cells treated with DMSO.
Ten compounds, randomly selected from the group of 110 compounds identified in Example 2, were further evaluated, as follows. HEK cells were plated on 96 well plates at a density of 100000 cells per well. One day after plating, 0.1, 1, and 5 μM of each positive compound was added per well in a 10% fetal bovine serum (FBS) DMEM solution. Cells were then lysed 48 hours after addition of the compound and Math1 expression was analyzed using a luciferase reporter assay, as described above, and real-time PCR.
The half maximal inhibitory concentration (IC50) and median lethal dose or Lethal Dose, 50% (LD50) were determined for each of the compounds identified in Example 2 using standard laboratory techniques. IC50 is a measure of the effectiveness of a compound in inhibiting biological or biochemical function. LD50 is the amount of a compound required to kill half the members of a tested population.

[3] = Homo sapiens, HEK293; read-out: IC50
[4] = Homo sapiens, HEK293; read-out: Maximum (Fold DMSO)

| Compound | LD50 [1] [µM] | IC50 [2, 3] [µM] | maximal fold induction [2, 4] | IC50 ([2]; Homo sapiens, HEK293) [µM] | maximal fold induction ([2]; Homo sapiens, HEK293, read-out: Maximum (Fold DMSO)) | increase in luciferase activity ([2]; 1 μM, compared to non-treated cells) [fold] |
| --- | --- | --- | --- | --- | --- | --- |
| NC(=O)c1sc2nc3c(cc2c1N)CCCCC3 [CP-0066751, 3-amino-6,7,8,9-tetrahydro-5H-cyclohepta[e]thieno[2,3-b]pyridine-2-carboxamide] | >10 | 1 | 1.9 | – | – | – |
| COc1cccc2c1OCC(C(=O)Nc1ccc(Cl)cc1Cl)=C2 [CP-0000928, N-(2,4-dichlorophenyl)-8-methoxy-2H-chromene-3-carboxamide] | >10 | 0.3 | 2 | – | – | – |
| CC(C)(C)c1ccc(C(=O)NCC2CCCO2)cc1 (stereo not shown) [CP-0061566, 4-tert-butyl-N-((tetrahydrofuran-2-yl)methyl)benzamide] | >10 | 0.2 | 2 | – | – | – |
| Fc1ccccc1-c1noc(NCCCN2CCCCC2)n1 [CP-0130665, 3-(2-fluorophenyl)-N-(3-(piperidin-1-yl)propyl)-1,2,4-oxadiazol-5-amine] | >10 | 0.3 | 2 | – | – | – |
| Cc1ccc(-c2nc(-c3cccnc3)no2)c(Cl)c1 [CP-0068929, 5-(2-chloro-4-methylphenyl)-3-(pyridin-3-yl)-1,2,4-oxadiazole] | >10 | 0.4 | 2 | – | – | – |
| CS(=O)(=O)n1nccc1-c1ccc(-c2ccc(F)cc2F)o1 [CP-0099289, 5-(5-(2,4-difluorophenyl)furan-2-yl)-1-(methylsulfonyl)-1H-pyrazole] | >10 | > 10 | 1.6 | – | – | – |
| O=C(c1ccc(-c2ccc(Br)cc2)o1)N1CCOCC1 [CP-0061777, (5-(4-bromophenyl)furan-2-yl)(morpholino)methanone] | >10 | > 10 | 2.1 | – | – | – |
| CCN(CC)c1ncnc2c1cnn2-c1cccc(C)c1 [CP-0079810, N,N-diethyl-1-m-tolyl-1H-pyrazolo[3,4-d]pyrimidin-4-amine] | >10 | 3 | 2.3 | – | – | – |
| Nc1nc(-c2ccc(-c3ccccc3)cc2)cs1 [CP-0072036, 4-(biphenyl-4-yl) thiazol-2-amine] | >10 | 1.5 | 1.7 | – | – | – |
| Cc1cccc(-c2nc3cc(C)ccc3o2)c1 [CP-0103978, 5-methyl-2-m-tolylbenzo[d]oxazole] | >10 | 1 | 2 | – | – | – |
| c1ccc(OCc2nc(-c3ccccn3)no2)cc1 [CP-0068395, 5-(phenoxymethyl)-3-(pyridin-2-yl)-1,2,4-oxadiazole] | >10 | 3 | 1.6 | – | – | – |
| Nc1nn(-c2ncnc3c2[nH]c2ccccc23)cc1-c1ccc(Cl)cc1 [CP-0000477, 4-(4-chlorophenyl)-1-(5H-pyrimido[5,4-b]indol-4-yl)-1H-pyrazol-3-amine] | >30 | 2 | 2 | – | – | – |
| Cc1ccc(-c2cnc3ccccc3n2)cc1C [CP-0045061, 2-(3,4-dimethylphenyl) quinoxaline] | >10 | 3 | 1.9 | – | – | – |
| COc1ccc(C2C=C(c3ccc(Cl)cc3)Nc3nc4ccccc4n32)cc1 (stereo not shown) [CP-0050095, 2-(4-chlorophenyl)-4-(4-methoxyphenyl)-1,4-dihydrobenzo[4.5]imi-dazo[1,2-a]pyrimidine] | >10 | – | – | 1.5 | 2.6 | – |
| O=C(Nc1nc2ccc(Br)cc2s1)c1cccs1 [CP-0064917, N-(6-bromobenzo[d]thiazol-2-yl)thiophene-2-carboxamide] | >10 | > 10 | 2 | – | – | – |
| Cc1oc(C(C)(C)C)cc1-c1cc(NC(=O)c2ccccc2)[nH]n1 [CP-0104765, N-(3-(5-tert-butyl-2-methylfuran-3-yl)-1H-pyrazol-5-yl)benzamide] | >10 | 0.4 | 2 | – | – | – |
| NC(=O)c1c(NC(=O)c2cc3ccccc3o2)sc2c1CCC2 [CP-0087336, N-(3-carbamoyl-5,6-dihydro-4H-cyclopenta[b]thiophen-2-yl)benzofuran-2-carboxamide] | >10 | 0.08 | 2.2 | – | – | – |
| Cc1cc(NC(=O)c2ccc3c(c2)OCO3)no1 [CP-0065665, N-(5-methylisoxazol-3-yl)benzo[d][1,3]dioxole-5-carboxamide] | >10 | 0.8 | 1.7 | – | – | – |
| COc1ccccc1OCc1nc2ccccc2[nH]1 [CP-0069961, 2-((2-methoxyphenoxy)methyl)-1H-benzo[d]imidazole] | >10 | 2 | 1.7 | – | – | – |
| CC(=O)Nc1ccc2nc(NC(=O)c3ccco3)sc2c1 [CP-0105777, N-(6-acetamidobenzo[d]thiazol-2-yl)furan-2-carboxamide] | >10 | 0.3 | 2 | – | – | – |
| Cc1ccc(CSc2nc3ncccc3o2)cc1 [CP-0130586, 2-(4-methylbenzylthio) oxazolo[4,5-b]pyridine] | >10 | 0.5 | 2.2 | – | – | – |
| CC(=O)Nc1cc(-c2sc3ccc(Cl)cc3c2C)n[nH]1 [CP-0102404, N-(3-(5-chloro-3-methylbenzo[b]thiophen-2-yl)-1H-pyrazol-5-yl)acetamide] | >10 | > 10 | 1.6 | – | – | – |
| Cc1cc(C(=O)Nc2ccccc2)c(C)n1Cc1cccs1 [CP-0104766, 2,5-dimethyl-N-phenyl-1-(thiophen-2-ylmethyl)-1H-pyrrole-3-carboxamide] | >10 | 3 | 3 | – | – | – |
| COc1ccc(-c2ccc3c(n2)CCCN3)cc1 [CP-0080276, 6-(4-methoxyphenyl)-1,2,3,4-tetrahydro-1,5-naphthyridine] | >10 | 0.3 | 2 | – | – | – |
| Cc1cccc(NC(=O)c2ccc3c(c2)OCCO3)n1 [CP-0029278, N-(6-methylpyridin-2-yl)-2,3-dihydrobenzo [b][1,4]dioxine-6-carboxamide] | >10 | 0.5 | 1.9 | – | – | – |
| CC(C)Oc1ccc(C(=O)Nc2sccc2C#N)cc1 [CP-0110352, N-(3-cyanothiophen-2-yl)-4-isopropoxybenzamide] | >10 | 0.05 | 1.8 | – | – | – |
| O=C(Nc1ccc(Cl)cn1)c1ccc(Br)cc1 [CP-0060729, 4-bromo-N-(5-chloropyridin-2-yl)benzamide] | >10 | 0.2 | 1.6 | – | – | – |
| CN(C)c1ccc(C2NN=C(c3ccc(Cl)cc3)N2)cc1 (stereo not shown) [CP-0007994, 4-(3-(4-chlorophenyl)-4,5-dihydro-1H-1,2,4-triazol-5-yl)-N,N-dimethylaniline] | >10 | 1 | 1.9 | – | – | – |
| COc1cccc(Nc2ncnc3[nH]cnc23)c1 [CP-0072720, N-(3-methoxyphenyl)-9H-purin-6-amine] | >10 | 3 | 1.8 | – | – | – |
| CC1=C(/C=C/C(C)=C/C=C/C(C)=C/C(=O)O)C(C)(C)CCC1 [retinoic acid, reference compound] | – | – | – | – | – | 1.8 |
